The source of these data is ChEMBL document CHEMBL5223098, “Prodrugs of pyrophosphates and bisphosphonates: disguising phosphorus oxyanions” (RSC Med Chem, 2022).

A short description of data set [1]: 1-Octanol/phosphate buffer apparent partition coefficient, logPapp of the compound at pH 7.4 by shake-flask method. The data set is classed as physicochemical.
Data set [2] in a line: Half-life of the compound in 10% rabbit liver homogenate by HPLC analysis. Type of data set: ADME, tissue-based, Oryctolagus cuniculus. The following applies: 10% liver homogenate.
For data set [3], the system named is Human immunodeficiency virus 2. The experiment in a line: Antiviral activity against HIV2 infected in human CEM-TK(-) cells assessed as inhibition of viral replication incubated for 4 to 5 days by microscopic analysis. Type of data set: functional, organism-based. The note with it: Human immunodeficiency virus 2, CEM-TK(-).
The nature of data set [4]: Octanol-water partition coefficient, logP of the compound by shake-flask method. Type of data set: physicochemical.
Data set [5] in a line: Half-life of the compound in pH 7.3 PBS buffer. Type of data set: physicochemical.
Data set [6] is described as follows: Half-life of the compound in human CEM/0 cell extract at pH 6.9. Type of data set: ADME, CCRF-CEM.
The nature of data set [7]: Apparent partition coefficient, logPapp of the compound by HPLC analysis. The data set is classed as physicochemical. The following applies: octanol/water.
Data set [8] can be described thus: Apparent partition coefficient, logPapp of the compound in pH 7.4 phosphate buffer incubated for 30 mins by HPLC analysis. Type of data set: physicochemical.
Data set [9] can be described thus: Half-life of the compound in pH 7.4 phosphate buffer by HPLC analysis. Type of data set: physicochemical.
The nature of data set [10]: Half-life of the compound in pH 2.0 phosphate buffer by HPLC analysis. The data set is classed as physicochemical.
A short description of data set [11]: Half life of the compound in RPMI medium. Type of data set: physicochemical.
A short description of data set [12]: Half life of the compound in pH 7.0 TEAA buffer. Type of data set: physicochemical.
Data set [13] is described as follows: Time for quantitative release of etidronate in 10% rabbit liver homogenate. The note with it: 10% liver homogenate.
Data set [14] in a line: Half-life of the compound in 80% human serum by HPLC analysis. The following applies: 80% serum. The data set is classed as ADME, cell-free.
Data set [15] has as its system Human immunodeficiency virus 2. The experiment in a line: Potency index, ratio of d4T EC50 to test compound EC50 for antiviral activity against HIV2 infected in human CEM-TK(-) cells assessed as inhibition of viral replication incubated for 4 to 5 days by microscopic analysis. The data set is classed as functional. The following applies: time 4-5 day.
Data set [16] can be described thus: Half-life of the compound in pH 5.0 phosphate buffer by HPLC analysis. Type of data set: physicochemical.
Data set [17] can be described thus: 1-Octanol/phosphate buffer apparent partition coefficient, logPapp of the compound by shake-flask method. Type of data set: physicochemical.
Data set [18] is described as follows: Half-life of the compound in human serum by HPLC analysis. Type of data set: ADME, cell-free.

The structures appear in SMILES notation.

For `CC(C)(C)C(=O)OCOP(=O)(OCOC(=O)C(C)(C)C)C(Cl)(Cl)P(=O)(OCOC(=O)C(C)(C)C)OCOC(=O)C(C)(C)C`, the logD in [1] amounted to 7.4.
For `CC(C)(C)C(=O)OCOP(=O)(O)C(Cl)(Cl)P(=O)(O)OCOC(=O)C(C)(C)C`, the logD in [1] was -2.1. Moreover, the half-life in data set [2] came out at 0.233 h.
For `Cc1cn([C@H]2C=C[C@@H](CO)O2)c(=O)[nH]c1=O` [STAVUDINE], in data set [3], the EC50 worked out at 70000 nM.
With `COc1ccc(OP(=O)(O)C(O)(c2cccc(Br)c2)P(=O)(O)Oc2ccc(OC)cc2)cc1` (stereo not drawn), the logP in data set [4] was -0.31.
Consider `CC(=O)Oc1ccc(COP(=O)(OCc2ccc(OC(C)=O)cc2)OP(=O)(O)OC[C@H]2O[C@@H](n3cc(C)c(=O)[nH]c3=O)C[C@@H]2N=[N+]=[N-])cc1`, for which the values for the half-life in data set [5] and in data set [6] were 17 h and 2 min, respectively.
As to `CC(=O)OC(C)(P(=O)(OCOC(=O)C(C)(C)C)OCOC(=O)C(C)(C)C)P(=O)(OCOC(=O)C(C)(C)C)OCOC(=O)C(C)(C)C`, the logD in [7] was found to be 7.4.
Take `O=C(OP(=O)(O)C(Cl)(Cl)P(=O)(O)OC(=O)c1ccccc1)c1ccccc1`: the logD at 0.5 h in [8] was -2.3.
With `CCCC(=O)OP(=O)(O)C(Cl)(Cl)P(=O)(O)OC(=O)CCC`, the half-life in data set [9] was 15.2 h; in [10], 0.75 h. The logD at 0.5 h in data set [8] is -2.3.
In the case of `CCCCCCCCCCCCCC(=O)OP(=O)(O)OP(=O)(O)OC[C@H]1O[C@@H](n2cc(C)c(=O)[nH]c2=O)C[C@@H]1N=[N+]=[N-]`, the half-life in [11] was 1.7 h; in data set [12], 114 h.
Take `CC(O)(P(=O)(O)O)P(=O)(O)O` [ETIDRONIC ACID]: the time to quantitative release in [13] is 3300 min.
On to `CC(C)(C)C(=O)OP(=O)(O)C(Cl)(Cl)P(=O)(O)OC(=O)C(C)(C)C`, for which, in data set [8], the logD at 0.5 h was -2.3. In [14], this compound showed a half-life of 3.3 h.
Consider `CCCCCCCC(=O)Oc1ccc(COP(=O)(OCc2ccc(OC(=O)CCCCCCC)cc2)OP(=O)(O)OC[C@@H]2C=C[C@H](n3cc(C)c(=O)[nH]c3=O)O2)cc1`, for which the 50% effective concentration (EC50) in [3] stood at 2600 nM. In addition, the “Ratio EC50” value in [15] amounted to 27.
For `CC(C)(C)C(=O)OCOP(=O)(O)C(Cl)(Cl)P(=O)(OCOC(=O)C(C)(C)C)OCOC(=O)C(C)(C)C`, the half-life is > 1 h in data set [9], > 1 h in data set [16] and 0.0183 h in data set [2]. Besides, the logD in data set [1] is 1.6.
With `CC(=O)OC(C)(P(=O)(O)OCOC(=O)C(C)(C)C)P(=O)(OCOC(=O)C(C)(C)C)OCOC(=O)C(C)(C)C` (stereo not drawn), the half-life in data set [9] was 163 h; in data set [16], 252 h; in [2], 0.045 h; in data set [18], 4.8 h. Further, the logD in data set [17] came to 0.6.
In the case of `Cc1cn([C@H]2C=C[C@@H](COP(=O)(O)OP(=O)(OCc3ccc(OC(=O)c4ccccc4)cc3)OCc3ccc(OC(=O)c4ccccc4)cc3)O2)c(=O)[nH]c1=O`, the EC50 in [3] amounted to 850 nM. In data set [15], the “Ratio EC50” value is recorded as 82.
Regarding `CC(=O)OP(=O)(O)C(Cl)(Cl)P(=O)(O)OC(C)=O`, the results for the half-life in [9] and in [10] were 15.2 h and 0.75 h, respectively. The logD at 0.5 h in data set [8] was -2.3.
